Experimental data from patent publication US9120779B2, “Inhibitors of HCV NS5A” (PRESIDIO PHARMACEUTICALS, INC., priority 2008, dated 2015).
Read-outs that look alike come from different tables or passages of the source.

Test system: HCV genotype 1b replicon in Huh 7 cells
Assay: HCV replicon assay (luciferase readout, 1b_Huh-Luc/Neo-ET cell line)
Type: cell-based
Method: Biological activity of the compounds of the invention was determined using an HCV replicon assay. The 1b_Huh-Luc/Neo-ET cell line persistently expressing a bicistronic genotype 1b replicon in Huh 7 cells was obtained from R^eBLikon GMBH. This cell line was used to test compound inhibition using luciferase enzyme activity readout as a measurement of compound inhibition of replicon levels.
On Day 1 (the day after plating), each compound is added in triplicate to the cells. Plates incubated for 72 h prior to running the luciferase assay. Enzyme activity was measured using a Bright-Glo Kit (cat. number E2620) manufactured by Promega Corporation. The following equation was used to generate a percent control value for each compound. % Control=(Average Compound Value/Average Control)*100
The EC50 value was determined using GraphPad Prism and the following equation: Y=Bottom+(Top−Bottom)/(1+10^((Log IC50−X)*HillSlope))
EC50 values of compounds are repeated several times in the replicon assay.
Example compounds of the disclosed invention are illustrated in Tables 1-9 attached as appendices. The tables show inhibitory activity of many of the example compounds with respect to HCV 1b. […] The tables further provide mass spectrometry results for the synthesized example compounds.

[1] = Hepatitis C virus, Huh-7, 72 h, read-out: Inhibition of HCV genotype 1b, Table 5, 72 h incubation
[2] = Hepatitis C virus, Huh-7, 72 h, read-out: Inhibition of HCV genotype 1b, Table 1, 72 h incubation
[3] = Hepatitis C virus, Huh-7, 72 h, read-out: Inhibition of HCV genotype 1b, Table 4, 72 h incubation
[4] = Hepatitis C virus, Huh-7, 72 h, read-out: Inhibition of HCV genotype 1b, Table 2, 72 h incubation
[5] = Hepatitis C virus, Huh-7, 72 h, read-out: Inhibition of HCV genotype 1b, Table 3, 72 h incubation

## COC(=O)N[C@H](C(=O)N1CCC[C@H]1c1ncc(-c2ccc(C34CCC(c5cnc([C@@H]6CCCN6C(=O)[C@@H](Nc6ncccn6)C(C)C)[nH]5)(CC3)CC4)cc2)[nH]1)C(C)C [compound 918]
[1]
  EC50: < 1 nM

## COC(=O)N[C@H](C(=O)N1CCC[C@H]1c1ncc(C23CCC(c4ccc(-c5cnc([C@@H]6CCCN6C(=O)[C@@H](NC(=O)N6CCOCC6)C(C)C)[nH]5)cc4)(CC2)CC3)[nH]1)C(C)C [compound 645]
[1]
  EC50: < 1 nM

## CC(C)[C@H](NC(=O)OC(C)(C)C)C(=O)N1CCC[C@H]1c1ncc(-c2ccc([C@H]3CC[C@@H](c4cnc([C@@H]5CCCN5C(=O)[C@@H](NC(=O)OC(C)(C)C)C(C)C)[nH]4)CC3)cc2)[nH]1 [compound 384]
[2]
  EC50: 10 to 999 nM

## CC(C)(C)OC(=O)N[C@@H](C(=O)N1CCC[C@H]1C(=O)N[C@H]1CC[C@@H](c2cccc(-c3cnc([C@@H]4CCCN4C(=O)[C@H](NC(=O)OC(C)(C)C)c4ccccc4)[nH]3)c2)CC1)c1ccccc1 [compound 363]
[2]
  EC50: < 1 nM

## COC(=O)N[C@@H](CC(C)C)C(=O)N1CCC[C@H]1c1ncc(C23CCC(c4ccc(-c5cnc([C@@H]6CCCN6C(=O)[C@@H](NC(=O)OC)C(C)C)[nH]5)cc4)(CC2)CC3)[nH]1 [compound 2065]
[1]
  EC50: < 1 nM

## CNC(=O)N[C@H](C(=O)N1CCC[C@H]1c1ncc(-c2ccc(C34CCC(c5cnc([C@@H]6CCCN6C(=O)[C@@H](NC(=O)OC)C(C)C)[nH]5)(CC3)CC4)cc2)[nH]1)C(C)C [compound 2095]
[1]
  EC50: < 1 nM

## COC(=O)N[C@H](C(=O)N1CCC[C@H]1c1ncc(C23CCC(c4ccc(-c5cnc([C@@H]6CCCN6C(=O)[C@@H](NC(=O)OC6CCOCC6)C(C)C)[nH]5)cc4)(CC2)CC3)[nH]1)C(C)C [compound 2079]
[1]
  EC50: 1 to 9.9 nM

## COC(=O)N[C@H](C(=O)N1CCC[C@H]1c1ncc(-c2ccc(C34CCC(c5cnc([C@@H]6CCCN6C(=O)[C@@H](NC(=O)OC)C6CC6)[nH]5)(CC3)CC4)cc2)[nH]1)C1CC1 [compound 908]
[1]
  EC50: < 1 nM

## COC(=O)N[C@H](C(=O)N1CCC[C@H]1c1ncc(C23CCC(c4ccc(-c5cnc([C@@H]6CCCN6C(=O)[C@@H](NC(=O)N6CCC(=O)CC6)C(C)C)[nH]5)cc4)(CC2)CC3)[nH]1)C(C)C [compound 650]
[1]
  EC50: 1 to 9.9 nM

## COC(=O)N[C@H](C(=O)N[C@@H](C)c1nc2ccc(-c3ccc(-c4ccc5nc([C@H](C)NC(=O)[C@@H](NC(=O)OC)C(C)C)[nH]c5c4)cc3)cc2[nH]1)C(C)C [compound 932]
[3]
  EC50: < 1 nM

## COC(=O)N[C@H](C(=O)N1CCC[C@H]1c1ncc(-c2ccc(-c3ccc4nc([C@@H]5CCCN5C(=O)[C@@H](NC(=O)OC)C(C)C)[nH]c4c3)cc2)[nH]1)C(C)C [compound 403]
[4]
  EC50: < 1 nM

## COC(=O)N[C@H](C(=O)N1CCC[C@H]1c1nc2ccc(-c3ccc(-c4ccc5nc([C@@H]6CCCN6C(=O)[C@@H](NC(=O)OC)[C@@H](C)O)[nH]c5c4)cc3)cc2[nH]1)[C@@H](C)O [compound 557]
[3]
  EC50: < 1 nM

## COC(=O)N[C@H](C(=O)N[C@@H](C)c1ncc(-c2ccc(C34CCC(c5cnc([C@@H]6CCCN6C(=O)[C@@H](c6ccccc6)N(C)C)[nH]5)(CC3)CC4)cc2)[nH]1)C(C)C [compound 2085]
[1]
  EC50: < 1 nM

## COC(=O)N[C@H](C(=O)N1CCC[C@H]1c1ncc(-c2ccc(C34CCC(c5cnc([C@@H]6CCCN6C(=O)[C@@H](NC(=O)N6CCC(O)CC6)C(C)C)[nH]5)(CC3)CC4)cc2)[nH]1)C(C)C [compound 2059]
[1]
  EC50: < 1 nM

## COC(=O)N[C@H](C(=O)N1CCC[C@H]1c1ncc(-c2ccc(C34CCC(c5cnc([C@@H]6CCCN6C(=O)[C@@H](NC(=O)N6CCC(O)CC6)C(C)C)[nH]5)(CC3)CC4)cc2)[nH]1)C(C)C [compound 633]
read-out: Inhibition of HCV genotype 1b, Table 5, 72 h incubation
  EC50: < 1 nM

## COC(=O)N[C@H](C(=O)N1CCC[C@H]1c1ncc(C23CCC(c4ccc(-c5cnc([C@@H]6CCCN6C(=O)[C@@H](C)NC(=O)OC)[nH]5)cc4)(CC2)CC3)[nH]1)C(C)C [compound 2082]
[1]
  EC50: < 1 nM

## COC(=O)N[C@H](C(=O)N1CCC[C@H]1c1ncc(-c2ccc([C@H]3CC[C@@H](c4cnc([C@@H]5CCCN5C(=O)[C@@H](NC(=O)OC)C(C)C)[nH]4)CC3)cc2)[nH]1)C(C)C [compound 382]
[2]
  EC50: < 1 nM

## COC(=O)N[C@H](C(=O)N1CCC[C@H]1c1ncc(-c2ccc(C3CCC(c4cnc([C@@H]5CCCN5C(=O)[C@@H](NC(=O)OC)c5ccccc5)[nH]4)CC3)cc2)[nH]1)c1ccccc1 (stereo partly shown) [compound 374]
[2]
  EC50: < 1 nM

## COC(=O)N[C@H](C(=O)N1CCC[C@H]1c1ncc(-c2ccc([C@H]3CC[C@H](c4cnc([C@@H]5CCCN5C(=O)[C@H](NC(=O)OC)c5ccccc5)[nH]4)CC3)cc2)[nH]1)C(C)C [compound 2001]
[2]
  EC50: < 1 nM

## COC(=O)N[C@H](C(=O)N1CCC[C@H]1c1ncc(-c2ccc(C34CCC(c5cnc([C@@H]6CCCN6C(=O)[C@H](NC(=O)OC)c6ccccc6)[nH]5)(CC3)CC4)cc2)[nH]1)C(C)C [compound 624]
[1]
  EC50: < 1 nM

## COC(=O)N[C@H](C(=O)N[C@@H](C)c1nc2ccc(-c3ccc(-c4ccc5nc([C@@H]6CCCN6C(=O)[C@H](C(C)C)N(C)C)[nH]c5c4)cc3)cc2[nH]1)C(C)C [compound 937]
[3]
  EC50: 1 to 9.9 nM

## CC(C)[C@H](NC(=O)OC(C)(C)C)C(=O)N1CCC[C@H]1c1nc2ccc(-c3ccc(-c4ccc5nc([C@@H]6CCCN6C(=O)[C@@H](NC(=O)OC(C)(C)C)C(C)C)[nH]c5c4)cc3)cc2[nH]1 [compound 554]
[3]
  EC50: > 1000 nM

## O=C(N[C@@H](C(=O)N1CCC[C@H]1c1ncc(-c2ccc(C3CCC(c4cnc([C@@H]5CCCN5C(=O)[C@H](NC(=O)N5CCOCC5)c5ccccc5)o4)CC3)cc2)[nH]1)c1ccccc1)N1CCOCC1 (stereo partly shown) [compound 358]
[2]
  EC50: < 1 nM

## COC(=O)N[C@H](C(=O)N1CCC[C@H]1c1ncc(-c2ccc(C34CCC(c5cnc([C@@H]6CCCN6C(=O)[C@@H](NC(=O)OC)[C@@H](C)OC)[nH]5)(CC3)CC4)cc2)[nH]1)[C@@H](C)OC [compound 612]
[1]
  EC50: < 1 nM

## COC(=O)N[C@H](C(=O)N1CCC[C@H]1c1ncc(-c2ccc(C34CCC(c5cnc([C@@H]6CCCN6C(=O)[C@@H](C)NC(=O)OC)[nH]5)(CC3)CC4)cc2)[nH]1)C(C)C [compound 2062]
[1]
  EC50: < 1 nM

## O=C(N[C@@H](C(=O)N1CCC[C@H]1C(=O)N[C@H]1CC[C@H](c2ccc(-c3cnc([C@@H]4CCCN4C(=O)[C@H](NC(=O)C4CC4)c4ccccc4)[nH]3)cc2)CC1)c1ccccc1)C1CC1 [compound 350]
[2]
  EC50: < 1 nM

## COC(=O)N[C@H](C(=O)N1CCC[C@H]1c1ncc(C23CCC(c4ccc(-c5cnc([C@@H]6CCCN6C(=O)[C@@H](C(C)C)N(C)C)[nH]5)cc4)(CC2)CC3)[nH]1)C(C)C [compound 2070]
[1]
  EC50: < 1 nM

## O=C(N[C@@H](C(=O)N1CCC[C@H]1c1nc2ccc(-c3ccc(-c4ccc5nc([C@@H]6CCCN6C(=O)[C@H](NC(=O)C6CC6)c6ccccc6)[nH]c5c4)cc3)cc2[nH]1)c1ccccc1)C1CC1 [compound 930]
[3]
  EC50: < 1 nM

## CC(C)(C)OC(=O)N[C@@H](C(=O)N1CCC[C@H]1c1ncc(-c2ccc(-c3ccc4nc([C@@H]5CCCN5C(=O)[C@H](NC(=O)OC(C)(C)C)c5ccccc5)[nH]c4c3)cc2)[nH]1)c1ccccc1 [compound 400]
[4]
  EC50: < 1 nM

## O=C(N[C@@H](C(=O)N1CCC[C@H]1c1ncc(-c2cc(F)c(N3CCC(c4cnc([C@@H]5COCCN5C(=O)[C@@H](c5ccccc5)N5CCCCC5)[nH]4)CC3)c(F)c2)[nH]1)c1ccccc1)C1CC1 [compound 495]
[5]
  EC50: < 1 nM

## CC(C)[C@H](NC(=O)N1CCCCC1)C(=O)N1CCC[C@H]1c1ncc(-c2ccc(C34CCC(c5cnc([C@@H]6CCCN6C(=O)[C@@H](NC(=O)N6CCCCC6)C(C)C)[nH]5)(CC3)CC4)cc2)[nH]1 [compound 639]
[1]
  EC50: > 1000 nM

## COC(=O)N[C@@H](C(=O)N1CCC[C@H]1c1ncc(-c2cc(F)c(N3CCC(c4cnc([C@@H]5CCCN5C(=O)[C@@H](c5ccccc5)N5CCOCC5)[nH]4)CC3)c(F)c2)[nH]1)c1ccccc1 [compound 468]
[5]
  EC50: < 1 nM

## COC(=O)N[C@@H](C(=O)N1CCC[C@H]1c1ncc(-c2cc(F)c(N3CCC(c4cnc([C@@H]5CCCN5C(=O)[C@H](NC(=O)N5CCOCC5)c5ccccc5)[nH]4)CC3)c(F)c2)[nH]1)c1ccccc1 [compound 471]
[5]
  EC50: 1 to 9.9 nM

## CC(C)[C@H](C(=O)N1CCC[C@H]1c1ncc(-c2ccc(C34CCC(c5cnc([C@@H]6CCCN6C(=O)[C@@H](C(C)C)N(C)C)[nH]5)(CC3)CC4)cc2)[nH]1)N(C)C [compound 920]
[1]
  EC50: 10 to 999 nM

## CC(C)(C)OC(=O)N[C@H](C(=O)N1CCC[C@H]1c1ncc(-c2ccc(C34CCC(c5cnc([C@@H]6CCCN6C(=O)[C@H](NC(=O)OC(C)(C)C)c6ccccc6)[nH]5)(CC3)CC4)cc2)[nH]1)c1ccccc1 [compound 601]
[1]
  EC50: < 1 nM

## COC(=O)N[C@@H](C(=O)N1CCC[C@H]1c1nc2ccc(-c3ccc(-c4ccc5nc([C@@H]6CCCN6C(=O)[C@H](NC(=O)OC)c6ccccc6)[nH]c5c4)cc3)cc2[nH]1)c1ccccc1 [compound 550]
[3]
  EC50: < 1 nM

## COC(=O)N[C@H](C(=O)N1CCC[C@H]1c1ncc(C23CCC(c4ccc(-c5cnc([C@@H]6CCCN6C(=O)[C@@H](NC(=O)N6CCN(C)CC6)C(C)C)[nH]5)cc4)(CC2)CC3)[nH]1)C(C)C [compound 646]
[1]
  EC50: 10 to 999 nM
